Measured values: patent US11168073B2, “3,3-difluoroallylamines or salts thereof and pharmaceutical compositions comprising the same” (YUHAN CORPORATION, priority 2018, dated 2021)
Where a name gives a salt, the structure may show the parent alone. Read-outs that look alike come from different tables or passages of the source.

Experiments:
Format in all cases: biochemical
recombinant human VAP-1 = target: T1, recombinant human VAP-1 (Homo sapiens, UniProt Q16853); assay: Activity evaluation on recombinant human VAP-1 (Amplex Red/HRP-coupled hydrogen peroxide assay, benzylamine substrate); conditions: read-out: Inhibitory Activity (IC50, nM) human VAP-1
T1 construct: purchased R&D systems
T1 sequence (Q16853 1-763): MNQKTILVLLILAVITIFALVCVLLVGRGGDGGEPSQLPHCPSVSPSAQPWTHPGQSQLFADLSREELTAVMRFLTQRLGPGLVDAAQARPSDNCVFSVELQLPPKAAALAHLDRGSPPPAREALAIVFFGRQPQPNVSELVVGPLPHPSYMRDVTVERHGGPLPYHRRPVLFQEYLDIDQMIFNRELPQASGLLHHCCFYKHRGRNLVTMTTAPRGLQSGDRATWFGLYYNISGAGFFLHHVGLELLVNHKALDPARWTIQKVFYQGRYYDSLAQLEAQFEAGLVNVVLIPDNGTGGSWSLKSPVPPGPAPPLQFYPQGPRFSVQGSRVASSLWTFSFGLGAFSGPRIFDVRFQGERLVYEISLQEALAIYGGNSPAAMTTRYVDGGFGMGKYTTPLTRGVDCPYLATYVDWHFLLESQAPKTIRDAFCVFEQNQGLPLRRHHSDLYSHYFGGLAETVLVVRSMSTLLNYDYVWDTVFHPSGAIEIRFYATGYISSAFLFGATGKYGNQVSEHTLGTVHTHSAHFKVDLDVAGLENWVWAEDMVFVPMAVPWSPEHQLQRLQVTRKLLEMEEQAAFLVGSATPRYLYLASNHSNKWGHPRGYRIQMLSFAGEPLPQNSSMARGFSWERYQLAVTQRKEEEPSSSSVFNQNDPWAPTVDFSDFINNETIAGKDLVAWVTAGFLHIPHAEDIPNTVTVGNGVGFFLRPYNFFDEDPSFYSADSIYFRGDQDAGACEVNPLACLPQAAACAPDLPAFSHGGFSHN
Procedure, shortened: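 Recombinant human VAP-1 in 50 mM sodium phosphate pH 7.4 preincubated 30 min at 37 °C with compound (8-point 1:3 series, <1% DMSO), then 1 mM benzylamine, 200 uM Amplex Red, 1 U/mL HRP added. H2O2-derived resorufin fluorescence (ex 544/em 590) followed 1–2 h; IC50 from four-parameter fit of rate inhibition.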

[1] = target: T2, recombinant human MAO-A (monoamine oxidase-A) (Homo sapiens, UniProt P21397); assay: Activity evaluation on recombinant human MAO-A (Amplex Red/HRP-coupled assay, 0.5 mM tyramine substrate); conditions: read-out: Inhibitory Activity (IC50, nM) MAO-A
T2 construct: purchased Sigma-Aldrich
T2 sequence (P21397 1-527): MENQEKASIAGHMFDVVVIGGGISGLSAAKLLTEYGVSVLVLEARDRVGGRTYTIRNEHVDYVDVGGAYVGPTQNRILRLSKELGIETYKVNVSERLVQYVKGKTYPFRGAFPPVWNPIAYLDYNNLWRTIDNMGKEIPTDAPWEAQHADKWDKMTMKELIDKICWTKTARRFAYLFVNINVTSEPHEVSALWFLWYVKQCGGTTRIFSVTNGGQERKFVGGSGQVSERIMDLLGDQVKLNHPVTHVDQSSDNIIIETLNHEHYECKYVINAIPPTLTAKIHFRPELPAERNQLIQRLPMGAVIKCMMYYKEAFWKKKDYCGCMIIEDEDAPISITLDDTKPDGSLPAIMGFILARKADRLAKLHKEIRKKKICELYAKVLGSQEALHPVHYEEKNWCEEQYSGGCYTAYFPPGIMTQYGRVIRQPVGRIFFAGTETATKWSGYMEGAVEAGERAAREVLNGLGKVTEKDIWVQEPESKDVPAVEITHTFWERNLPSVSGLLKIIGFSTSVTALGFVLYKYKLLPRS
Procedure, shortened: (§1)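 Enzyme was preincubated with compounds (8-point 1:3 series, final DMSO <1%) 30 min at 37 °C in 50 mM sodium phosphate pH 7.4, then given 200 uM Amplex Red and 1 U/mL HRP with substrate. H2O2-derived resorufin fluorescence (ex 544/em 590 nm) was followed over 1–2 h; IC50 came from 4-parameter logistic fits of signal-rate inhibition versus DMSO control.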

[2] = target: T3, recombinant human MAO-B (monoamine oxidase-B) (Homo sapiens, UniProt P27338); assay: Activity evaluation on recombinant human MAO-B (Amplex Red/HRP-coupled assay, 1 mM benzylamine substrate); conditions: read-out: Inhibitory Activity (IC50, nM) MAO-B
T3 construct: purchased Sigma-Aldrich
T3 sequence (P27338 1-520): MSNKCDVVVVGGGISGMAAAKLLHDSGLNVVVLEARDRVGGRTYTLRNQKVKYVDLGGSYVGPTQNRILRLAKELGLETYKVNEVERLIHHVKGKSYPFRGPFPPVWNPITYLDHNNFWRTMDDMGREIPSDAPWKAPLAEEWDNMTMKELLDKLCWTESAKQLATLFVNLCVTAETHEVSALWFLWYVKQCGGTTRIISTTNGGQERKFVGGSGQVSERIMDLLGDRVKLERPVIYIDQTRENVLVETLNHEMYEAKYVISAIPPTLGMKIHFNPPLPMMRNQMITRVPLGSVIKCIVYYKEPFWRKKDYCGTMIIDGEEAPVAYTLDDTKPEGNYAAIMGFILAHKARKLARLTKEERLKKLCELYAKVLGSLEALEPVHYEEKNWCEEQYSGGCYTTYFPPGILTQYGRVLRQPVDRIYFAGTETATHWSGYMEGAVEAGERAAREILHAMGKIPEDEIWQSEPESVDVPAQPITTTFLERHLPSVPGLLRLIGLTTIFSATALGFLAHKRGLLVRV
Procedure, shortened: as §1

[3] = target: T4, recombinant human DAO (diamine oxidase) (Homo sapiens, UniProt P19801); assay: Activity evaluation on recombinant human DAO (Amplex Red/HRP-coupled assay, 1 mM putrescine substrate); conditions: read-out: Inhibitory Activity (IC50, nM) DAO
T4 construct: purchased R&D systems
T4 sequence (P19801 20-751): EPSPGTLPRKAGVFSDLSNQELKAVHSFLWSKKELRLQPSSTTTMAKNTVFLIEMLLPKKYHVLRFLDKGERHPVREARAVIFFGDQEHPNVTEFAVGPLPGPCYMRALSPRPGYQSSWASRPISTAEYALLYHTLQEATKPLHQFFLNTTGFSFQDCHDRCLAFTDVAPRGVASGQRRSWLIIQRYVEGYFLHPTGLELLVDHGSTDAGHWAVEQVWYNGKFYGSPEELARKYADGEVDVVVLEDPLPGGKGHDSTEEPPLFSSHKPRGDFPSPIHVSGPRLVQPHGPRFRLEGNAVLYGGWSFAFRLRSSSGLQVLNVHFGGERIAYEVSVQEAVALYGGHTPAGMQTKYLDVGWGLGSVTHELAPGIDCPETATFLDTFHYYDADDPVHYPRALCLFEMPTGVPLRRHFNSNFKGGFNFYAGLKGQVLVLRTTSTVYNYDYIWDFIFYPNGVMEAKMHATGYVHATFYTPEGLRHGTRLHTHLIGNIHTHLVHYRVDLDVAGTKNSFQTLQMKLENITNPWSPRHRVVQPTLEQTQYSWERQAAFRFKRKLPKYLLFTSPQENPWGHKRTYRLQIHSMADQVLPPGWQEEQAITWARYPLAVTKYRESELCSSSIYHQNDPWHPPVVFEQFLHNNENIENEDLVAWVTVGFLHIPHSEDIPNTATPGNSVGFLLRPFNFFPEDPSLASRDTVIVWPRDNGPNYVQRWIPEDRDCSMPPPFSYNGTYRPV
Procedure, shortened: as §1

[4] = recombinant human VAP-1, 30 min preincubation at 37° C., 1 mM benzylamine
[5] = recombinant human VAP-1, benzylamine substrate

Row | Structure (SMILES) | IC50 (recombinant human VAP-1; [4]) | IC50 ([1]; 0.5 mM tyramine) | IC50 ([2]; 1 mM benzylamine) | IC50 ([3]; 1 mM putrescine) | IC50 (recombinant human VAP-1; [5]) | IC50 ([1]; 0.5 mM tyramine substrate) | IC50 ([2]; 1 mM benzylamine substrate) | IC50 ([3]; 1 mM putrescine substrate)
1 | NCC(Cn1ncn(-c2ncc(-c3ccc4c(c3)OCO4)cc2F)c1=O)=C(F)F [Example 85, 2-[2-(aminomethyl)-3,3-difluoro-allyl]-4-[5-(1,3-benzodioxol-5-yl)-3-fluoro-2-pyridyl]-1,2,4-triazol-3-one Trifluoroacetate] | 0.2 nM | > 100000 nM | 130 nM | 180 nM | – | – | – | –
2 | CS(=O)(=O)c1ccc(-c2cccc(-n3cnn(CC(CN)=C(F)F)c3=O)c2)cc1 [Example 17, 2-[2-(aminomethyl)-3,3-difluoro-allyl]-4-[3-(4-methylsulfonylphenyl)phenyl]-1,2,4-triazol-3-one Trifluoroacetate] | 12 nM | > 100000 nM | > 10000 nM | 1300 nM | – | – | – | –
3 | Cc1cc(-c2cc(C)c3c(c2)CCC(=O)N3)cnc1-n1cnn(CC(CN)=C(F)F)c1=O [Example 73, 6-[6-[1-[2-(aminomethyl)-3,3-difluoro-allyl]-5-oxo-1,2,4-triazol-4-yl]-5-methyl-3-pyridyl]-8-methyl-3,4-dihydro-1H-quinolin-2-one Trifluoroacetate] | 0.3 nM | > 100000 nM | 7200 nM | 6100 nM | – | – | – | –
4 | Cc1cc(-c2ccc3c(c2)OCO3)cnc1-n1cnn(CC(CN)=C(F)F)c1=O [Example 72, 2-[2-(aminomethyl)-3,3-difluoro-allyl]-4-[5-(1,3-benzodioxol-5-yl)-3-methyl-2-pyridyl]-1,2,4-triazol-3-one Trifluoroacetate] | 0.5 nM | > 100000 nM | 1500 nM | 57000 nM | – | – | – | –

Other lines, results leading:

Row | IC50 (recombinant human VAP-1; [4]) | IC50 ([1]; 0.5 mM tyramine) | IC50 ([2]; 1 mM benzylamine) | IC50 ([3]; 1 mM putrescine) | IC50 (recombinant human VAP-1; [5]) | IC50 ([1]; 0.5 mM tyramine substrate) | IC50 ([2]; 1 mM benzylamine substrate) | IC50 ([3]; 1 mM putrescine substrate) | Structure (SMILES)
5 | 1.3 nM | > 100000 nM | 20000 nM | > 10000 nM | – | – | – | – | NCC(Cn1ncn(Cc2ccc(Br)s2)c1=O)=C(F)F [Example 97, 2-[2-(aminomethyl)-3,3-difluoro-allyl]-4-[(5-bromo-2-thienyl)methyl]-1,2,4-triazol-3-one Trifluoroacetate]
6 | 6.2 nM | > 100000 nM | > 100000 nM | 46000 nM | – | – | – | – | NCC(Cn1ncn(-c2cccc(Br)c2)c1=O)=C(F)F [Example 2, 2-[2-(aminomethyl)-3,3-difluoro-allyl]-4-(3-bromophenyl)-1,2,4-triazol-3-one Trifluoroacetate]
7 | 0.2 nM | > 100000 nM | 32000 nM | 16000 nM | – | – | – | – | NCC(Cn1ncn(Cc2ccc(-c3ccc4c(c3)NC(=O)OC4)s2)c1=O)=C(F)F [Example 142, 7-[5-[[1-[2-(aminomethyl)-3,3-difluoro-allyl]-5-oxo-1,2,4-triazol-4-yl]methyl]-2-thienyl]-1,4-dihydro-3,1-benzoxazin-2-one Trifluoroacetate]
8 | – | – | – | – | 0.2 nM | 40400 nM | 1950 nM | 3910 nM | CC(=O)c1ccc(-c2cnc(-n3cnn(CC(CN)=C(F)F)c3=O)c(C)c2)s1 [Example 231, 4-[5-(5-acetyl-2-thienyl)-3-methyl-2-pyridyl]-2-[2-(aminomethyl)-3,3-difluoro-allyl]-1,2,4-triazol-3-one Trifluoroacetate]
9 | 0.6 nM | > 100000 nM | > 100000 nM | > 10000 nM | – | – | – | – | CN(C)c1ccc(-c2csc(Cn3cnn(CC(CN)=C(F)F)c3=O)c2)cn1 [Example 149, 2-[2-(aminomethyl)-3,3-difluoro-allyl]-4-[[4-[6-(dimethylamino)-3-pyridyl]-2-thienyl]methyl]-1,2,4-triazol-3-one Trifluoroacetate]
10 | – | – | – | – | 2380 nM | > 100000 nM | > 100000 nM | > 100000 nM | NCC(Cn1ncn(Cc2ccccc2-c2ccc(N3CCNCC3)cc2)c1=O)=C(F)F [Example 280, 2-[2-(aminomethyl)-3,3-difluoro-allyl]-4-[[2-(4-piperazin-1-ylphenyl)phenyl]methyl]-1,2,4-triazol-3-one Ditrifluoroacetate]
